{"source": "paper PMC8495455", "about": "“Discovery of a transdermally deliverable pentapeptide for activating AdipoR1 to promote hair growth” (EMBO Molecular Medicine, 2021)", "key": {"PDGFA mRNA": {"system": "PDGFA mRNA", "test": "qRT-PCR growth factor gene expression in DP cells, PDGFA", "format": "cell-based, human", "conditions": "for mRNA_PDGFA: DP cells", "description": "(§1) Next, we investigated the downstream effects of P5 on hair growth factor genes and proteins in DP cells. […] We tested whether P5 can also increase the mRNA levels and proteins of hair growth factors in DP cells: IGF‐1, VEGF, HGF, platelet‐derived growth factor alpha (PDGFA), and fibroblast growth factor (FGF) 7, which are known to induce or maintain the anagen phase of the hair cycle (Jindo et al, [1994]; Philpott et al, [1994]; Yano et al, [2001]; Jang, [2005]; Tomita et al, [2006]; Iino et al, [2007]).\nTotal RNA was isolated from P5‐treated DP cells using RNAiso Plus (#9109; TaKaRa). We used the total RNA (1 µg) for cDNA synthesis using a RevertAid First Strand cDNA Synthesis Kit (Thermo Fisher) according to the manufacturer's instructions. The mRNA expression levels were quantified on a 7500 Real‐time PCR System (Thermo Fisher) using TB Green Premix Ex Taq (TaKaRa Bio): human IGF‐1, VEGF, HGF, PDGFA, FGF7, and glyceraldehyde 3‐phosphate dehydrogenase (GAPDH) (Appendix Table S2). The relative expression levels of each gene were determined by the 2^‐ΔΔCT method."}, "HGF protein": {"system": "HGF protein", "test": "Growth factor protein quantitation in DP cell medium, HGF", "format": "cell-based, human", "conditions": "for protein_HGF: DP cell medium", "description": "as §1\nHuman DP cells were grown on a 100‐mm cell culture dish to 100% confluency. After washed by PBS three times, the cells were cultured with serum‐free DMEM and treated with P5. After 48 h, the medium was collected and filtered by a […]. The filtrate was then concentrated using a centrifugal concentrator (Vivaspin 6, 10‐kDa molecular weight cutoff, centrifuged 2,600 g at 4°C for 13 min, Sartorius Stedim Biotech). The signals of each protein in the concentrated media were detected and quantified, based on the enzyme‐linked immunosorbent assay (Human Cytokine Antibody Array C2000, RayBiotech)."}, "Adipor1−/− mice": {"system": "Adipor1−/− mice", "test": "Mouse hair cycle modulation, histology and anagen induction score, Adipor1−/− mice", "format": "in vivo", "description": "To test whether the effect of P5 is mediated through AdipoR1 in vivo, we used Adipor1 ^−/− mice (Yamauchi et al, [2007]; Okada‐Iwabu et al, [2013]). […] Consistently, the anagen induction effects of P5 was abolished in the Adipor1 ^−/− mice (Fig 4I and J), in contrast to in WT mouse (Appendix Fig S2). […] Taken together, topical P5 treatment can accelerate hair growth through AdipoR1 in vivo.\nParaffin‐embedded mouse cutaneous back tissue was sectioned (4 μm thickness) and stained with hematoxylin and eosin. […] IF intensity was observed and recorded with a Nikon Eclipse Ni‐E fluorescence microscope (Nikon).\nFor the hair cycle modulation experiment, Adipoq ^−/− (stock #008195; JAX) (Ma et al, [2002]), Adipor1 ^−/− (Yamauchi et al, [2007]; Okada‐Iwabu et al, [2013]), or C57BL/6 (KOATECH) female mice was used (Müller‐Röver et al, [2001]). […] The mouse hair growth score (a value from 0 to 100 based on the skin pigmentation and hair shaft density) was monitored and documented at designated days with the experimenters being blind to the conditions, following a previous study (Chai et al, [2019]). […] On day 35, we obtained dorsal cutaneous tissue for histological analysis: anagen induction scores (calculated using an assigned arbitrary score; telogen = 1, anagen I–VI = 2–7) (Müller‐Röver et al, [2001]). […]"}, "[1]": {"conditions": "P5 5μM, relative to Control = 1, replicate 1"}, "[2]": {"conditions": "P5 5μM, relative to Control = 1, replicate 2"}, "[3]": {"conditions": "P5 5μM, relative to Control = 1, replicate 3"}, "[4]": {"conditions": "P5 25μM, relative to Control = 1, replicate 1"}, "[5]": {"conditions": "P5 25μM, relative to Control = 1, replicate 2"}, "[6]": {"conditions": "P5 25μM, relative to Control = 1, replicate 3"}}}
{"substance": "GLYYF [P5, GST-fused (GST-P5) in pulldown assays]", "values": [{"measurement": "mRNA_PDGFA", "setting": "PDGFA mRNA; [1]", "result": 1.237}, {"measurement": "mRNA_PDGFA", "setting": "PDGFA mRNA; [2]", "result": 1.013}, {"measurement": "mRNA_PDGFA", "setting": "PDGFA mRNA; [3]", "result": 1.221}, {"measurement": "mRNA_PDGFA", "setting": "PDGFA mRNA; P5 5μM, relative to Control = 1, replicate 4", "result": 1.252}, {"measurement": "mRNA_PDGFA", "setting": "PDGFA mRNA; [4]", "result": 1.5777}, {"measurement": "mRNA_PDGFA", "setting": "PDGFA mRNA; [5]", "result": 1.8805}, {"measurement": "mRNA_PDGFA", "setting": "PDGFA mRNA; [6]", "result": 1.22}, {"measurement": "mRNA_PDGFA", "setting": "PDGFA mRNA; P5 25μM, relative to Control = 1, replicate 4", "result": 1.95}, {"measurement": "PDGFA mRNA expression", "setting": "PDGFA mRNA; P5-treated DP cells, n = 4", "result": "significantly increased"}, {"measurement": "protein_HGF", "setting": "HGF protein; [1]", "result": 1.103}, {"measurement": "protein_HGF", "setting": "HGF protein; [2]", "result": 1.31}, {"measurement": "protein_HGF", "setting": "HGF protein; [3]", "result": 1.677}, {"measurement": "protein_HGF", "setting": "HGF protein; [4]", "result": 1.711}, {"measurement": "protein_HGF", "setting": "HGF protein; [5]", "result": 2.432}, {"measurement": "protein_HGF", "setting": "HGF protein; [6]", "result": 3.924}, {"measurement": "HGF protein expression level", "setting": "HGF protein; P5-treated DP cells, 48 h medium, n = 3", "result": "elevated"}, {"measurement": "Histology / anagen induction score vs vehicle", "setting": "Adipor1−/− mice", "result": "anagen HF was not found"}]}
